US20250367114A1, “INHALABLE COMPOSITION FOR ENHANCING ALERTNESS AND VITALITY AND DEVICE FOR SUPPLYING THE INHALABLE COMPOSITION” (KT&G CORPORATION, priority 2024, published 2025)

Test system: C57BL/6 mice
Experiment: general behavioral experiments (LABORAS) after oral administration of caffeine
Assay type: in vivo
Conditions: for Distance (distance of movement) / Number of times (number of movements) / Speed (speed of movement) / Time (time of movement): measured for an hour
Protocol: The experimental animals were C57BL/6 mice (male, 10 weeks old) purchased from KOATECH after receiving approval from the Institutional Animal Care and Use Committee (IACUC). The experimental animals were acclimatized for a week in the breeding room of the bio-efficacy evaluation center of KT&G (temperature 23±2° C., humidity 50±10%, light-dark cycle 12 hours) and then used in the experiments.
Caffeine was dissolved in a 0.9% saline solution and administered orally to the mice by using Zonde at a dosage of 10 ml/kg, and then general behavioral experiments were conducted. Samples of experimental examples 1 to 3 below were orally administered to the C57BL/6 mice, and then the number of movements, the speed of movement (mm/s), the distance of movement (meter), and the time of movement (sec) for an hour were measured using a LABORAS behavioral device.
Experimental example 1 was a control group, in which only 10 ml/kg of a 0.9% saline solution was orally administered. In experimental example 2, caffeine was dissolved in a 0.9% saline solution at a dose of 5 mg/kg and orally administered by using Zonde. In experimental example 3, caffeine was dissolved in a 0.9% saline solution at a dose of 30 mg/kg and orally administered by using Zonde. With respect to each of experimental examples 1 to 3, the alertness effect of caffeine was verified through general behavioral experiments, and results thereof are shown in Table 1 below.

[1] = caffeine 5 mg/kg oral in 0.9% saline
[2] = caffeine 30 mg/kg oral in 0.9% saline

In the case of `Cn1c(=O)c2c(ncn2C)n(C)c1=O` [Experimental example 2, caffeine], the “alertness effect (in words)” value (caffeine 5 mg/kg oral) is reported as “almost no effect”, the “Distance (distance of movement)” value [1] is reported as 20.48 ± 3.27 meter and the “Number of times (number of movements)” value [1] is reported as 532.5 ± 66.33 count. The “Speed (speed of movement)” value [1] was 5.689 ± 0.91 mm/s, the “Time (time of movement)” value [1] was 405.65 ± 21.89 s and the “alertness effect (in words)” value (caffeine 30 mg/kg oral) was “alertness effect was observed”. The “Distance (distance of movement)” value [2] was 33.59 ± 7.85 meter, the “Number of times (number of movements)” value [2] was 1034.5 ± 220.05 count and the “Speed (speed of movement)” value [2] was 9.33 ± 2.18 mm/s. For the same molecule, the “Time (time of movement)” value [2] was 884.15 ± 154.86 s.
